Residues, ends and D or L forms follow the SMILES beside them.
What was measured:
trypsin = experiment: Peptide map: decomposition with trypsin, HPLC analysis; format: in vitro ADME; details: Tris-HCl 100 mM pH 8.5, 37°C, 24 hours, compared with linear peptide (GRGDSPA)
Experimental: Peptide was dissolved in 10 mg/mℓ of distilled water. 20 »l of this solution was diluted with addition of 180 »l of a buffer solution (Tris-HCl, 100 mM, pH 8.5). To this diluted solution, 5 »l of a trip solution (1 mg/mℓ […], CaCl₂ 10 mM) was added, and the mixture was kept at a temperature of 37°C for 24 hours. Then, 10 »l of 2N HCl was added to this mixed solution to complete the reaction. Out of this reaction liquid, 50 »l was provided for high performance liquid chromatography HPLC for its analysis. Condition for Analysis HP HPLC: Waters Model 510 Column: YMC-ODS Detection: A₂₁₄ Elution: Liquid A - 0.1% aqueous solution of TFA Liquid B - 0.1% acetonitrile solution of TFA Linear concentration gradient of: 0% B → 30% B (0 min.) (30 min.) Figure 1 is a graphical representation showing the result of analysis of the cyclic peptide synthesized in accordance with this Example. Also, the linear peptide (GRGDSPA) synthesized in accordance with (14) above was tested under the same conditions as mentioned above. The result of its analysis is shin in Figure 2.

blood platelet = experiment: Decrease in number of blood platelet in surgical operation using artificial heart and lung; format: in vivo; details: surgical operations using artificial heart and lung; control PBS
Experimental: The following Table indicates the results of examination of decrease in the number of the blood platelet, when 100 »g (per 1 kg of weight/minute) of [formula] was added for the purpose of the surgical operation. As the control, there was added PBS in place of peptide.

## C[C@@H]1NC(=O)[C@@H]2CCCN2C(=O)[C@H](CO)NC(=O)[C@H](CC(=O)O)NC(=O)CNC(=O)[C@H](CCCNC(=N)N)NC(=O)CNC1=O [Example 1] (cyclo(RGDSPAG))
trypsin
  decomposition by treatment with trypsin: difficult to undergo further decomposition

## C[C@@H]1NC(=O)[C@@H]2CCCN2C(=O)[C@H](CO)NC(=O)[C@H](CC(=O)O)NC(=O)CNC(=O)[C@H](CCCNC(=N)N)NC(=O)CNC1=O [Example I00042] (cyclo(RGDSPAG))
Blood platelet
  inhibiting aggregation of blood platelet: capability of inhibiting such aggregation at its low concentration

From EP0406428B1, “PEPTIDE DERIVATIVES AND THEIR USE” (ASAHI GLASS COMPANY LTD., priority 1988, dated 1995)
